Source: patent US7273875B2, “Naphthyridine derivatives, their preparation and their use as phosphodiesterase isoenzyme 4 (PDE4) inhibitors” (Novartis AG, priority 2001, dated 2007)
Counter-ions that a name gives are not always drawn.

Assays:
[1] = molecular target: T1, human PDE4D (Homo sapiens, UniProt Q08499); test: PDE4 isoenzyme inhibition assay (SPA), PDE4D; assay type: biochemical; conditions: [3H]-cAMP, 1 μM cAMP, 30-60 minutes at room temperature, 1% DMSO
T1 construct: PDE4 cDNA constructs containing the coding regions of the three isoenzymes; made in house; host or cells: Sf21 insect cells (baculovirus, Bac-To-Bac)
T1 sequence (Q08499 1-673 isoform Q08499-2): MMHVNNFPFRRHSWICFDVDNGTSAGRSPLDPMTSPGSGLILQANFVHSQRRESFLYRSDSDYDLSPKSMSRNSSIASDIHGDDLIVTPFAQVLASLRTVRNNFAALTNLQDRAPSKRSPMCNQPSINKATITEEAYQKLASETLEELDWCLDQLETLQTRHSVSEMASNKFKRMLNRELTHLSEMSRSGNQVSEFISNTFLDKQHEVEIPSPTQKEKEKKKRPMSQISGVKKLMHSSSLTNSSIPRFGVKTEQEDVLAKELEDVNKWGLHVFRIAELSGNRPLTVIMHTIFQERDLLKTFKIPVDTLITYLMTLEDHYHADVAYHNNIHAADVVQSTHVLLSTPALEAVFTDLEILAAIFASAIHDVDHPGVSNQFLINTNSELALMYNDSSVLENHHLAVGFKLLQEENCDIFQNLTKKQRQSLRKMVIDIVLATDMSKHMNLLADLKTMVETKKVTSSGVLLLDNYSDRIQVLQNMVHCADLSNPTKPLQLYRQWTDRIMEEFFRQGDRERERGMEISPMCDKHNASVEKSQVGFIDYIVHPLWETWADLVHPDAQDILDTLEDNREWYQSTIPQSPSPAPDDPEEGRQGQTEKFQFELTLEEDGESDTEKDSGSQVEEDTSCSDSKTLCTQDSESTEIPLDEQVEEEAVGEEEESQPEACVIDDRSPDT
From the text: PDE4 Isoenzyme Inhibition Assay
Cloning: GATEWAY flanked PDE4 cDNA constructs containing the coding regions of the three isoenzymes, human PDE4A, human PDE4B, and human PDE4D are generated by PCR and transposed into the GATEWAY shuttle vector pDONOR-201. In addition a 6-histidine tag is introduced by PCR onto the carboxyl terminal end of each of the constructs to facilitate protein purification. Following sequence verification, the PDE4 constructs are transposed into the GATEWAY expression vector pDEST-8, Positive recombinants are selected and transposed into E. coli strain DH10Bac and bacmid produced transfected into SF21 cells using Bac-To-Bac (Invitrogen Life Technologies). Positive transfections are selected and used to generate high titer viral stocks for use in protein expression.
PDE4 Expression: Sf21 cells are grown to a density of 2×10^6 cells/ml and infected with human PDE4A, PDE4B or PDE4D3 containing baculovirus to a multiplicity of infection (m.o.i.) of 1 for 72 hours. The infected cells are harvested by centrifugation at 1,400 g for 4 minutes at 4° C. and the cell pellets are frozen at −80° C. Sf21 (Spodoptera frugiperda 21) insect cells are routinely maintained at densities between […] and 3×10^6 cells/ml in SF00 Serum Free Medium (Invitorgen Life Technologies). Sf21 cells ([…]) are resuspended in 100 ml cold (4° C.) Lysis Buffer (50 mM Na2HPO4, 200 mM NaCl, 10 mM Imidazole). Cells are incubated on ice for 30 minutes then centrifuged at 15,000 g for 20 minutes at 4° C.
PDE4 Purification: The 6 Histidine-tagged PDE4 proteins are isolated from crude cell lysates by a batch-wise Ni-NTA purification strategy (QIAGEN). N-NTA resin is first pre-rinsed to remove ethanol preservative and equilibrated with Lysis Buffer. Cell lysate is added, (10 ml 50% Ni-NTA slurry resin per 50 ml lysate), and gently rotated on a mixer at 4° C. for 1-2 hours. The sample is then centrifuged at 1,000 g for 5 minutes at 4° C. using Denley benchtop centrifuge. The supernatant is removed and the resin is washed 3 times with 50 ml ice cold Wash Buffer (50 mM Na2HPO4, 300 mM NaCl and 20 mM imidazole) followed by centrifugation at 1,000 g for 5 min at 4° C. The 6His-tagged protein is eluted from the resin with 3×5 ml ice cold Elution Buffer (50 mM NaH2PO4, 300 mM NaCl, 250 mM imidazole) and collected by centrifugation at 1,000 g for 5 minutes at 4° C. The supernatants are then pooled before buffer exchange and concentration using a VivaScience 20 ml SK 0.2 μM Concentrator. Samples are aliquoted and stored at −20° C.
PDE4 Assay: The assay is based on Amersham Pharmacia Biotech Scintillation Proximity Assay (SPA) technology. Enzyme is diluted with enzyme dilution buffer (10 mM Tris-HCl, pH7.5 containing 1 mM EDTA) in order to obtain between 10-30% total substrate hydrolysis during the assay. The enzymatic reaction is started by adding 10 μl diluted enzyme to 80 μl substrate (0.1 μCi [3H]-cAMP, 1 μM cAMP) and 10 μl inhibitor solution in a 96-well microtiter plate. After 30-60 minutes incubation at room temperature the reaction is stopped by adding 50 μl PDE SPA beads (20 mg/ml). After 30 minutes the plate is centrifuged (3000 g, 10 minutes) and counted (Packard TopCount).
Inhibitor stock solutions are prepared in 100% dimethylsulphoxide (DMSO) and diluted with DMSO/water to achieve 10 concentrations to cover the range of 0-100% inhibition. The concentration of DMSO is kept constant at 1% (v/v) throughout the assay.
The concentration at which 50% inhibition occurs (IC50) is determined from inhibition—concentration curves in a conventional manner.

Compound | melting point | IC50 [1]
N#Cc1cccc(-c2nc(C3CCC(C(=O)O)CC3)cc3cccnc23)c1 (stereo not drawn) (as salt: potassium) [Example 3, 4-[8-(3-Cyano-phenyl)-[1,7]naphthyridin-6-yl]-cyclohexanecarboxylic acid] | > 250 °C | –
CCOC(=O)C1CCC(c2cc3cccnc3c(-c3cccc(C#N)c3)n2)CC1 (stereo not drawn) [Example 1, 4[8-(3-Cyano-phenyl)-[1,7]naphthyridin-6-yl]-cyclohexanecarboxylic acid ethyl ester] | – | 0.038 µM
N#Cc1cccc(-c2nc(C3CCC(C(=O)O)CC3)cc3cccnc23)c1 (stereo not drawn) [Example 3, 4-[8-(3-Cyano-phenyl)-[1,7]naphthyridin-6-yl]-cyclohexanecarboxylic acid] | – | 0.009 µM
COc1cccc(-c2nc(C3CCC(C(=O)O)CC3)cc3cccnc23)c1 (stereo not drawn) [Example 10, 4-[8-(3-Methoxy-phenyl)-[1,7]naphthyridin-6-yl]-cyclohexanecarboxylic acid] | 209 to 212 °C | 0.025 µM
O=C(O)C1CCC(c2cc3cccnc3c(-c3cccc(F)c3)n2)CC1 (stereo not drawn) [Example 12, 4-[8-(3-Fluorophenyl)-[1,7]naphthyridin-6-yl]-cyclohexanecarboxylic acid] | – | 0.021 µM
O=C(O)C1CCC(c2cc3cccnc3c(-c3cccc(OC(F)(F)F)c3)n2)CC1 (stereo not drawn) [Example 14, 4-[8-(3-Trifluoromethoxyphenyl)-[1,7]naphthyridin-6-yl]-cyclohexanecarboxylic acid] | – | 0.057 µM
CSc1cccc(-c2nc(C3CCC(C(=O)O)CC3)cc3cccnc23)c1 (stereo not drawn) [Example 15, 4-[8-(3-Methylsulfanyl-phenyl)-[1,7]naphthyridin-6-yl]-cyclohexanecarboxylic acid] | 177.6 to 178.2 °C | 0.009 µM
